Target: T1, OleTKM (Kocuria marina, UniProt A0A0B0D9P4)
T1 sequence (A0A0B0D9P4 1-428): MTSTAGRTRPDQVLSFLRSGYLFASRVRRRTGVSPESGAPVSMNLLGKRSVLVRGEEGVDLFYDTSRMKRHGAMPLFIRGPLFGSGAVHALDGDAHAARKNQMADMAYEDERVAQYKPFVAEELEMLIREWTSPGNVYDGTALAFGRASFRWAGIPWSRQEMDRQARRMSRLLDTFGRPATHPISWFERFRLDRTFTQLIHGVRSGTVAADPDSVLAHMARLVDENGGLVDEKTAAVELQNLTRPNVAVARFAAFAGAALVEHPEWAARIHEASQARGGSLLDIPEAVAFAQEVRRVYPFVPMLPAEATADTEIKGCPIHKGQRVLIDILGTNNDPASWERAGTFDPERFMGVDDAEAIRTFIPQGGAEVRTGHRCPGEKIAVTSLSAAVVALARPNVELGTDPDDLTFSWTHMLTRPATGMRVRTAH
Assay: inhibition of myristic acid turnover
Type: biochemical
Settings: even mixture of C14:0 and C18:1; competitive

With `CCCCCCCC/C=C\CCCCCCCC(=O)O` [oleic acid] the “inhibition of myristic acid turnover” value was “presence of oleic acid impaired the activity of OleTKM against myristic acid (Fig. 1d)”.

Source: PMC11754895 (Nature Communications, 2025)
